Experimental data from patent US20230399661A1, “SHUTTLE AGENT PEPTIDES OF MINIMAL LENGTH AND VARIANTS THEREOF ADAPTED FOR TRANSDUCTION OF CAS9-RNP AND OTHER NUCLEOPROTEIN CARGOS” (priority 2020, published 2023).

Tested on: HeLa cells
Experiment: GFP-NLS transduction in the presence or absence of Cas9-RNP complex, flow cytometry
Assay type: cell-based, Human
Design: GFP transduction efficiency: concentration or dose not given beside the values
Conditions: for resistance/sensitivity of GFP transduction to inhibition by Cas9-RNP: presence vs absence of Cas9-RNP
Protocol: HeLa cells were plated (20 000 cells/well) in a 96 well-plate the day prior to the experiment in DMEM containing 10% FBS. A mix was prepared containing a synthetic peptide shuttle agent (10-30 μM), the GFP-NLS (10 μM) with or without a Cas9-NLS recombinant protein (2.5 μM) complexed with a crRNA/tracrRNA (2 μM) targeting the beta-2 microglobulin (B2M) gene and completed to 50 μL with PBS. Cells were washed once with PBS and the shuttle/GFP-NLS/Cas9-RNP mix was added to the cells and incubated for one minute. Then 100 μL DMEM containing 10% FBS was added to the mix. Cells were then immediately washed once with PBS and incubated in DMEM containing 10% FBS for two hours. Cells were the analyzed by flow cytometry.
To better understand the inhibitory effect of Cas9-RNP on shuttle agent transduction activity, HeLa cells were incubated with different peptides/shuttle agents and GFP cargo, in the presence or absence of Cas9-RNP, and delivery of GFP was assessed by flow cytometry, as described in Example 1. […] For some shuttle agents, the effect was particularly striking. For example, the GFP transduction efficiency for FSD268 decreased from 92% to 29%, the GFP transduction efficiency for FSD250 decreased from 83% to 13%, the GFP transduction efficiency for FSD10 decreased from 76% to 22%, and the GFP transduction efficiency for FSD395 decreased from 91% to 17%. […] Structure-activity relationships were explored further by repeating the above transduction experiments with shuttle agent variants sharing the same “core” amphipathic cationic alpha helical region as FSD10-15 (FIG. 4A), CM18 (FIG. 4B), and FSD356 (FIG. 4C).

Substance | resistance/sensitivity of GFP transduction to inhibition by Cas9-RNP | further results
FSD446: shuttle agent with N-terminal segment identical to FSD356 and a C-terminal non-cationic hydrophilic segment (KWKLLKLWSRLLKLWGGSGGGSHTSDQTN; FSD446) | – | GFP transduction efficiency (presence of Cas9-RNP): 34%
CM18-TAT: CM18-based shuttle agent having high C-terminal positive charge density (KWKLFKKIGAVLKVLTTGYGRKKRRQRRR; CM18-TAT) | particularly marked sensitivities to inhibition by Cas9-RNP | –
FSD187: shuttle agent variant sharing the same core region as FSD174; higher C-terminal positive charge density (LLKIWSRLIKIWTQGRRLGARKPRKSRQ; FSD187) | generally more sensitive to Cas9-RNP inhibition | –
FSD356: shuttle agent whose last three C-terminal residues are QAG (KWKLLKLWSRLLKLWGGSGGGSQAG; FSD356) | more resistant | GFP transduction efficiency (presence of Cas9-RNP): 51%
FSD10-15: 15-amino acid fragment of several longer shuttle agents, including FSD375, FSD10 and FSD210 (KWKLARAFARAIKKL; FSD10-15) | more resistant | GFP transduction efficiency (absence of Cas9-RNP): 21%; GFP transduction efficiency (presence of Cas9-RNP): 24%
His-CM18-9Arg: CM18-based shuttle agent having high C-terminal positive charge density (HHHHHHKWKLFKKIGAVLKVLTTGRRRRRRRRR; His-CM18-9Arg) | particularly marked sensitivities to inhibition by Cas9-RNP | –
FSD174: synthetic peptide shuttle agent having higher C-terminal positive charge density (LLKIWSRLIKIWTQGRRLGGSGGGSARAARQAR; FSD174) | particularly sensitive to the inhibitory effect of Cas9-RNP | GFP transduction efficiency (absence of Cas9-RNP): 66%; GFP transduction efficiency (presence of Cas9-RNP): 11%; resistance/sensitivity of GFP transduction to inhibition by Cas9-RNP (listed as FSD 174): generally more sensitive to Cas9-RNP inhibition
His-CM18-Transportan: CM18-based shuttle agent with lower C-terminal positive charge density (HHHHHHKWKLFKKIGAVLKVLTTGGWTLNSAGYLLKINLKALAALAKKIL; His-CM18-Transportan) | substantially more resistant to inhibition by Cas9-RNP | –
FSD432: shuttle agent: FSD10-15 core, C-terminal glycine/serine-rich linker fused to a second cationic domain (KWKLARAFARAIKKLGGSGGGSQAKAQAKQAK; FSD432) | more sensitive to inhibition by Cas9-RNP | –
FSD268: synthetic peptide shuttle agent (KWKLLKLWSRLLKLWGGSGGGSQARAQARQAR; FSD268) | – | GFP transduction efficiency (absence of Cas9-RNP): 92%; GFP transduction efficiency (presence of Cas9-RNP): 29%
His-CM18-TAT: CM18-based shuttle agent having high C-terminal positive charge density (HHHHHHKWKLFKKIGAVLKVLTTGYGRKKRRQRRR; His-CM18-TAT) | particularly marked sensitivities to inhibition by Cas9-RNP | –
FSD357: FSD356 with the last three C-terminal residues (QAG) replaced with three positively-charged arginine residues (RRR) (KWKLLKLWSRLLKLWGGSGGGSRRR; FSD357) | – | GFP transduction efficiency (presence of Cas9-RNP): 4%
FSD241: shuttle agent: FSD10-15 core, C-terminal glycine/serine-rich linker fused to a second cationic domain (KWKLARAFARAIKKLGGSGGGSYARAAARQARA; FSD241) | more sensitive to inhibition by Cas9-RNP | –
FSD424: FSD10-15 with flanking glycine/serine-rich residues (KWKLARAFARAIKKLGGSGGGSGGSGGGS; FSD424) | retained the peptide's resistance to Cas9-RNP | GFP transduction activity relative to FSD10-15 (FIG. 4A): improving GFP transduction activity over FSD10-15
FSD251: shuttle agent containing three negatively-charged glutamate (E) residues in the peptide's C-terminal region (KWKLLKLWSRLLKLWGGSGGGSAEAAEQAE; FSD251) | least sensitivity to Cas9-RNP inhibition | –
FSD422: FSD10-15 with flanking histidine residues in place of the glycine/serine-rich residues (HHHHHHKWKLARAFARAIKKLHHHHHH; FSD422) | did not maintain the same level of Cas9-RNP resistance | –
FSD296: shuttle agent with N-terminal segment identical to FSD356; polar residues (e.g., Q) between the C-terminal positively-charged residues (KWKLLKLWSRLLKLWQQGGSGGGSQARAQARQAR; FSD296) | increased shuttle agent sensitivity to inhibition by Cas9-RNP | –
FSD440: CM18 with flanking glycine/serine-rich residues (GGSGGGSKWKLFKKIGAVLKVLTTGGGSGGGS; FSD440) | retained the peptide's resistance to Cas9-RNP | GFP delivery score (FIGS. 3 and 4B, presence or absence of Cas9-RNP not stated): 3.6
FSD246: shuttle agent with N-terminal segment identical to FSD356; increased C-terminal positive charge density (KWKLLKLWSRLLKLWGGSGGGSYARAAARKAKRA; FSD246) | increased shuttle agent sensitivity to inhibition by Cas9-RNP | –
FSD189: shuttle agent variant sharing the same core region as FSD174; higher C-terminal positive charge density (LLKIWSRLIKIWTQGRRLGRAQRAQRA; FSD189) | generally more sensitive to Cas9-RNP inhibition | –
FSD210: shuttle agent: FSD10-15 core, C-terminal glycine/serine-rich linker fused to a second cationic domain (KWKLARAFARAIKKLGGSGGGSRRLKAKRAKA; FSD210) | more sensitive to inhibition by Cas9-RNP | –
CM18-L2-PTD4: CM18-based shuttle agent with lower C-terminal positive charge density (KWKLFKKIGAVLKVLTTGGGSGGGSYARAAARQARA; CM18-L2-PTD4) | substantially more resistant to inhibition by Cas9-RNP | –
